{
  "source": "paper PMC8219027",
  "about": "“A small-molecule inhibitor of the BRCA2-RAD51 interaction modulates RAD51 assembly and potentiates DNA damage-induced cell death” (Cell Chemical Biology, 2021)",
  "key": {"γH2AX foci in A549 cells": {"test_system": "γH2AX foci in A549 cells", "test": "γH2AX foci, Cellomics ArrayScan high-content microscopy", "type": "cell-based, human", "conditions": "50 μM, 24 h after exposure to IR", "excerpt": "We tested this prediction by monitoring RAD51 foci formation after the exposure of A549 non-small cell lung carcinoma (NSCLC) cells to ionizing radiation (IR), using a robust cell-based assay based on high-content microscopy with the Cellomics ArrayScan V^TI, to objectively enumerate RAD51 foci ([Jeyasekharan et al., 2013]). IR-induced DNA breakage was monitored in the same experiment by enumerating foci containing γH2AX, a phosphorylated form of histone H2AX that is formed at DNA breaks ([Rogakou et al., 1998]).\nFor detection of γH2AX foci in A549 cells, 10,000 cells/well (1x10^5 cells/ml) were seeded in 100 μl and left to grow overnight before treatment with compound. Cells were subsequently exposed to compounds and either 3 Gy ionising radiation or mock treated (left on the bench at room temperature). Staining protocol was identical as for RAD51 foci but anti-phospho γH2AX primary mouse monoclonal antibody was used (Millipore, cat#05-636) at 1:2000 dilution. Image analysis was done using Cellomics software."}, "[1]": {"test_system": "HCT116 colon carcinoma cells", "test": "Cell-cycle profiling by flow cytometry (propidium iodide)", "type": "cell-based, human", "conditions": "HCT116, 20 μM CAM833 and 3 Gy IR", "excerpt": "Genetic inactivation of RAD51 enhances cellular sensitivity to ionizing radiation, accompanied by cell-cycle arrest at the G2 checkpoint for DNA damage ([Sonoda et al., 1998]; [Su et al., 2008]). We hypothesized that similar effects would be triggered by the exposure of cells to CAM833. […] Over time, there is a drop in the percentage of cells with 4N DNA in both treated and control groups. However, whereas in the control the percentage of cells in the apoptotic subG1 fraction remains below 5% throughout, in the compound-treated cells this rises progressively to peak at 15% at 48 hours (Figure 5D).\nPropidium iodide staining solution (PI solution) was used at the following final concentrations: 200 ug/ml RNAase A (Sigma Aldrich, cat# 10109169001), 0.1% Triton-X 100 (v/v) and 20 ug/ml of propidium iodide solution diluted in 1x PBS. HCT116 cells were grown in 6-well plates in a total volume of 2 ml and treated with either test compound or DMSO control for the designated time. After treatment, medium was collected from the cells which were then washed in 1x PBS then removed from the plastic by the addition of in 500 μl Trypsin/EDTA until cells were monodispersed. The trypsin was neutralised by the removed media and the cell suspension was spun at 1000 rpm for 5 minutes. […] Cells were then counted and analysed using a Becton Dickinson LSR II cytometer and FCS Express software."}, "CYP450 1A2": {"molecular_target": "T1, CYP450 1A2 (Homo sapiens, UniProt P05177)", "T1 construct": "Cyprotex (contract data)", "T1 sequence (P05177 whole entry)": "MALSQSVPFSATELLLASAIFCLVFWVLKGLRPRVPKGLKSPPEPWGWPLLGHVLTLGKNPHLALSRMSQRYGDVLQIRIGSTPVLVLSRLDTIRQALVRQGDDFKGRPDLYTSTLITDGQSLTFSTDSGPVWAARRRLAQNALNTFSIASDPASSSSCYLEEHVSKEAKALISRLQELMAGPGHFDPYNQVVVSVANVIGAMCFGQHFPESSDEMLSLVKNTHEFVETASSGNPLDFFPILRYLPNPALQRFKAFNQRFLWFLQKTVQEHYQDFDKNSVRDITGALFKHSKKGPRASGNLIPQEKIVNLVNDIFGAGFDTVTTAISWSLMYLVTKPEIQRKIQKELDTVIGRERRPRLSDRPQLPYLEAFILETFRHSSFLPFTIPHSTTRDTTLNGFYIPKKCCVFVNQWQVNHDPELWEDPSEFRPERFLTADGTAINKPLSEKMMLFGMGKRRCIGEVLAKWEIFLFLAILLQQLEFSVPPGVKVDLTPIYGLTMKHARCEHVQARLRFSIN", "test": "CYP450 inhibition", "type": "in vitro ADME"}, "CYP450 2C19": {"molecular_target": "T2, CYP450 2C19 (Homo sapiens, UniProt P33261)", "T2 construct": "Cyprotex (contract data)", "T2 sequence (P33261 whole entry)": "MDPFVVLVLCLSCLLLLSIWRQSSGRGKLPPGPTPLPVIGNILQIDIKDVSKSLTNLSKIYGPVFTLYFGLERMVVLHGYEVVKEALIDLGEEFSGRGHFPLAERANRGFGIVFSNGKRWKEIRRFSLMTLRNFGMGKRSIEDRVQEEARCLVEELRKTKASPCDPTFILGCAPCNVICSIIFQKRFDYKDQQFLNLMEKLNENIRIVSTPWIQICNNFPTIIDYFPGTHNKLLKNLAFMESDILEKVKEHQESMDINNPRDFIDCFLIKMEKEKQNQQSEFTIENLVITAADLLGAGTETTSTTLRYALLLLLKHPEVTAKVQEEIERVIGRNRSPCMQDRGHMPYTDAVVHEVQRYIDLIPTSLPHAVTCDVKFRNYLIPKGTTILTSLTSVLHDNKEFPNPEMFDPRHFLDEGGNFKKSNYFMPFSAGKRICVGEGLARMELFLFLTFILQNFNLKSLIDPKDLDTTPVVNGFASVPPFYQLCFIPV", "test": "CYP450 inhibition", "type": "in vitro ADME"}, "CYP450 2D6": {"molecular_target": "T3, CYP450 2D6 (Homo sapiens, UniProt P10635)", "T3 construct": "Cyprotex (contract data)", "T3 sequence (P10635 whole entry)": "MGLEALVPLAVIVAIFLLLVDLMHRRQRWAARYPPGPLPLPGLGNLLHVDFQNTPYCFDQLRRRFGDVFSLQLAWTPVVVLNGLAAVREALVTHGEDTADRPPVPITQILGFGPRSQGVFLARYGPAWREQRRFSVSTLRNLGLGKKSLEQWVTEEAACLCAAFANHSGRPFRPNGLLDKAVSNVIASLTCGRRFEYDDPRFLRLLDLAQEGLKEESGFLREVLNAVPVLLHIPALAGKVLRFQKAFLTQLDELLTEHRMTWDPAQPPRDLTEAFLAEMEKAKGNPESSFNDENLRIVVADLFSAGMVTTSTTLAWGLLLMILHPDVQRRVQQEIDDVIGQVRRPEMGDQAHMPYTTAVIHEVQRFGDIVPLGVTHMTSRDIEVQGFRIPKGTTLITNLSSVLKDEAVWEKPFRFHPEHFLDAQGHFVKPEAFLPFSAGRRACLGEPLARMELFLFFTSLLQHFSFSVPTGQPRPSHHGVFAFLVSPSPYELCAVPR", "test": "CYP450 inhibition", "type": "in vitro ADME"}, "CYP450 3A4": {"molecular_target": "T4, CYP450 3A4 (Homo sapiens, UniProt P08684)", "T4 construct": "Cyprotex (contract data)", "T4 sequence (P08684 whole entry)": "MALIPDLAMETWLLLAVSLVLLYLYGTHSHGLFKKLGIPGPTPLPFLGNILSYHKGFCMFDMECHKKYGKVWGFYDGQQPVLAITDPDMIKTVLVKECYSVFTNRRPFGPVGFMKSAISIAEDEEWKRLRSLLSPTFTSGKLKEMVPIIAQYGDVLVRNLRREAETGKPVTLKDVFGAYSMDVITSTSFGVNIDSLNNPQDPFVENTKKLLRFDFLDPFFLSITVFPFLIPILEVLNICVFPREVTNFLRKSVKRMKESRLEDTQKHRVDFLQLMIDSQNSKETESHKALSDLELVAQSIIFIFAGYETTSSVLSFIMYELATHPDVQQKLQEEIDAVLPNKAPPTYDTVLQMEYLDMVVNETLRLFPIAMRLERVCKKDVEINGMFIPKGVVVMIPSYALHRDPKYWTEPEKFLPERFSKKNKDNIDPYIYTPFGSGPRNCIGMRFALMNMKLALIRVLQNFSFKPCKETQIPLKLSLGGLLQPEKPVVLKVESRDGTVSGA", "test": "CYP450 inhibition", "type": "in vitro ADME"}, "SK-MEL-24": {"test_system": "SK-MEL-24", "test": "cells", "conditions": "Homo sapiens, SK-MEL-24, read-out: Absolute EC50, growth inhibition"}, "BT549": {"test_system": "BT549", "test": "cells", "conditions": "Homo sapiens, BT-549, read-out: Absolute EC50, growth inhibition"}, "HCT116": {"test_system": "HCT116", "test": "cells", "conditions": "Homo sapiens, HCT-116, read-out: Absolute EC50, growth inhibition"}, "RT112/84": {"test_system": "RT112/84", "test": "cells", "conditions": "Homo sapiens, RT112/84, read-out: Absolute EC50, growth inhibition"}, "SK-OV-3": {"test_system": "SK-OV-3", "test": "cells", "conditions": "Homo sapiens, SK-OV-3, read-out: Absolute EC50, growth inhibition"}, "HL-60": {"test_system": "HL-60", "test": "cells", "conditions": "Homo sapiens, HL-60, read-out: Absolute EC50, growth inhibition"}, "LN229": {"test_system": "LN229", "test": "cells", "conditions": "Homo sapiens, LN-229, read-out: Absolute EC50, growth inhibition"}, "A2780": {"test_system": "A2780", "test": "cells", "conditions": "Homo sapiens, A2780, read-out: Absolute EC50, growth inhibition"}, "PANC1": {"test_system": "PANC1", "test": "cells", "conditions": "Homo sapiens, PANC-1, read-out: Absolute EC50, growth inhibition"}, "[2]": {"test": "Microsomal intrinsic clearance", "conditions": "rat, rat microsomes"}},
  "data": [
    {"compound": "COc1ccc([C@H](C)NC(=O)[C@@H]2C[C@@H](O)CN2C(=O)CNC(=O)c2ccc3cc(F)ccc3n2)c(Cl)c1", "note": "[CAM833, N-(2-((2S,4R)-2-(((S)-1-(2-chloro-4-methoxyphenyl)ethyl)carbamoyl)-4-hydroxypyrrolidin-1-yl)-2-oxoethyl)-6-fluoroquinoline-2-carboxamide]", "values": [
      {"measurement": "increase of γH2AX foci formation compared with control-treated cells", "setting": "γH2AX foci in A549 cells", "result": "approximately 4 fold"},
      {"measurement": "percentage of cells with 4N DNA (in words)", "setting": "[1]; 4 hours after irradiation", "result": "causes an increase"},
      {"measurement": "percentage of cells in the apoptotic subG1 fraction, peak", "setting": "[1]; at 48 hours", "result": 15, "unit": "%"},
      {"measurement": "IC50", "setting": "CYP450 1A2", "result": "> 25", "unit": "µM"},
      {"measurement": "IC50", "setting": "CYP450 2C19", "result": "> 25", "unit": "µM"},
      {"measurement": "IC50", "setting": "CYP450 2D6", "result": "> 25", "unit": "µM"},
      {"measurement": "IC50", "setting": "CYP450 3A4; 3A4 midazolam site", "result": "> 25", "unit": "µM"},
      {"measurement": "IC50", "setting": "CYP450 3A4; 3A4 testosterone site", "result": "> 25", "unit": "µM"},
      {"measurement": "EC50", "setting": "SK-MEL-24", "result": 144, "unit": "µM"},
      {"measurement": "EC50", "setting": "BT549", "result": 73.8, "unit": "µM"},
      {"measurement": "EC50", "setting": "HCT116", "result": 63.5, "unit": "µM"},
      {"measurement": "EC50", "setting": "RT112/84", "result": 70.6, "unit": "µM"},
      {"measurement": "EC50", "setting": "SK-OV-3", "result": 105, "unit": "µM"},
      {"measurement": "EC50", "setting": "HL-60", "result": 87.7, "unit": "µM"},
      {"measurement": "EC50", "setting": "LN229", "result": 117, "unit": "µM"},
      {"measurement": "EC50", "setting": "A2780", "result": 46.5, "unit": "µM"},
      {"measurement": "EC50", "setting": "PANC1", "result": 96, "unit": "µM"},
      {"measurement": "half-life", "setting": "[2]", "result": 47.9, "unit": "min"},
      {"measurement": "microsomal CLint", "setting": "[2]", "result": "28.9 ± 4.16", "unit": "µL/min/mg"}
    ]}
  ]
}
